# Test results taken from patent publication US10023564B2, “G protein-coupled receptor kinase 2 inhibitors and methods for use of the same” (THE REGENTS OF THE UNIVERSITY OF MICHIGAN, priority 2014, dated 2018).
# Target: T1, GRK2 (Homo sapiens (Human), UniProt P25098)
# Assay: GRK2 kinetic assay (phosphorylation of bROS or tubulin, phosphorimaging)
# Format: biochemical
# Settings: 50 nM GRK, 5 μM ATP, 5 min reaction
# Description: The low salt concentration and DDM were used to maximize GRK activity and disrupt small molecule aggregates from forming, respectively. […] Data was analyzed and inhibition curves were fit via GraphPad Prism.
# T1 sequence (P25098 whole entry, species assumed): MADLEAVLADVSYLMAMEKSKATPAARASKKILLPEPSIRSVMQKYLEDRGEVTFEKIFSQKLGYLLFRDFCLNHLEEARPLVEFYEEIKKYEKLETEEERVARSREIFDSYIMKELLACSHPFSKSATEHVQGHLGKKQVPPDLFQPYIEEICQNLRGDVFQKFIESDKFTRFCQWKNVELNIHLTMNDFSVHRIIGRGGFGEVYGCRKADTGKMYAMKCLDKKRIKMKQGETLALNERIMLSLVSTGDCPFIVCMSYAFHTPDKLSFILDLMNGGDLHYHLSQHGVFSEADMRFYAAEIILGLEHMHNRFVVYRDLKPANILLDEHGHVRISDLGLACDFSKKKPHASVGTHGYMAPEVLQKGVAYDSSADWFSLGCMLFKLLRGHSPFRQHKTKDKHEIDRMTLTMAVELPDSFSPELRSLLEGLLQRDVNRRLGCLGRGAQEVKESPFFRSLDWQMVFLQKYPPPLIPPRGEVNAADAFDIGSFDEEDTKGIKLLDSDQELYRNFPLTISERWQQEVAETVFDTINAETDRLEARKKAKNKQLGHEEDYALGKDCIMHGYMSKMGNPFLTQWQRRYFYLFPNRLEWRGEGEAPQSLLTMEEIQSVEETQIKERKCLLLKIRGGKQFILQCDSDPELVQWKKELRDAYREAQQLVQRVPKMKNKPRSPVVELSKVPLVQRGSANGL
row,Structure (SMILES),IC50
1,"CC1=C(C(=O)Nc2ccc3[nH]ncc3c2)C(c2ccc(F)c(CC(=O)NCC3CCN(C4CC4)CC3)c2)NC(=O)N1 (stereo not shown) [Example E33, 4-(3-(2-(((1-cyclopropylpiperidin-4-yl)methyl)amino)-2-oxoethyl)-4-fluorophenyl)-N-(1H-indazol-5-yl)-6-methyl-2-oxo-1,2,3,4-tetrahydropyrimidine-5-carboxamide]",680 nM
2,"CC1=C(C(=O)Nc2ccc3[nH]ncc3c2)C(c2ccc(F)c(C(=O)NC3CC4CCC3(C)C4(C)C)c2)NC(=O)N1 (stereo not shown) [Example E25, 4-(4-fluoro-3-((1,7,7-trimethylbicyclo[2.2.1]heptan-2-yl)carbamoyl)phenyl)-N-(1H-indazol-5-yl)-6-methyl-2-oxo-1,2,3,4-tetrahydropyrimidine-5-carboxamide]",5200 nM
3,"CC1=C(C(=O)Nc2ccc3[nH]ncc3c2)C(c2ccc(F)c(CC(=O)N(C)Cc3nc(C)c[nH]3)c2)NC(=O)N1 (stereo not shown) [Example E34, 4-(4-fluoro-3-(2-(methyl((4-methyl-1H-imidazol-2-yl)methyl)amino)-2-oxoethyl)phenyl)-N-(1H-indazol-5-yl)-6-methyl-2-oxo-1,2,3,4-tetrahydropyrimidine-5-carboxamide]",1200 nM
4,"COC(=O)C1(NC(=O)c2cc(C3NC(=O)NC(C)=C3C(=O)Nc3ccc4[nH]ncc4c3)ccc2F)CCCCC1 (stereo not shown) [Example E23, methyl 1-(5-(5-((1H-indazol-5-yl)carbamoyl)-6-methyl-2-oxo-1,2,3,4-tetrahydropyrimidin-4-yl)-2-fluorobenzamido)cyclohexanecarboxylate]",820 nM
5,"C#CCN(CC(C)C)C(=O)Cc1cc(C2NC(=O)NC(C)=C2C(=O)Nc2ccc3[nH]ncc3c2)ccc1F (stereo not shown) [Example E36, 4-(4-fluoro-3-(2-(isobutyl(prop-2-yn-1-yl)amino)-2-oxoethyl)phenyl)-N-(1H-indazol-5-yl)-6-methyl-2-oxo-1,2,3,4-tetrahydropyrimidine-5-carboxamide]",2600 nM
6,"CC1=C(C(=O)Nc2ccc3[nH]ncc3c2)C(c2ccc(F)c(CC(=O)N(CCO)Cc3ccco3)c2)NC(=O)N1 (stereo not shown) [Example E32, 4-(4-fluoro-3-(2-((furan-2-ylmethyl)(2-hydroxyethyl)amino)-2-oxoethyl)phenyl)-N-(1H-indazol-5-yl)-6-methyl-2-oxo-1,2,3,4-tetrahydropyrimidine-5-carboxamide]",500 nM

# Further lines, results first:
row,IC50,Structure (SMILES)
1,2600 nM,"CC1=C(C(=O)Nc2ccc3[nH]ncc3c2)C(c2ccc(F)c(C(=O)NCc3nccc4ccccc34)c2)NC(=O)N1 (stereo not shown) [Example E08, 4-(4-fluoro-3-((isoquinolin-1-ylmethyl)carbamoyl)phenyl)-N-(1H-indazol-5-yl)-6-methyl-2-oxo-1,2,3,4-tetrahydropyrimidine-5-carboxamide]"
2,240 nM,"COCc1noc(CNC(=O)c2cc(C3NC(=O)NC(C)=C3C(=O)Nc3ccc4[nH]ncc4c3)ccc2F)n1 (stereo not shown) [Example E24, 4-(4-fluoro-3-(((3-(methoxymethyl)-1,2,4-oxadiazol-5-yl)methyl)carbamoyl)phenyl)-N-(1H-indazol-5-yl)-6-methyl-2-oxo-1,2,3,4-tetrahydropyrimidine-5-carboxamide]"
3,320 nM,"COc1ccccc1C(C)NC(=O)c1cc(C2NC(=O)NC(C)=C2C(=O)Nc2ccc3[nH]ncc3c2)ccc1F (stereo not shown) [Example E27, 4-(4-fluoro-3-((1-(2-methoxyphenyl)ethyl)carbamoyl)phenyl)-N-(1H-indazol-5-yl)-6-methyl-2-oxo-1,2,3,4-tetrahydropyrimidine-5-carboxamide]"
4,120 nM,"CC1=C(C(=O)Nc2ccc3[nH]ncc3c2)C(c2ccc(F)c(C(=O)NCc3c(F)cccc3F)c2)NC(=O)N1 (stereo not shown) [Example E02, 4-(3-((2,6-difluorobenzyl)carbamoyl)-4-fluorophenyl)-N-(1H-indazol-5-yl)-6-methyl-2-oxo-1,2,3,4-tetrahydropyrimidine-5-carboxamide]"

# Target: ROCK1 (Homo sapiens (Human), UniProt Q13464)
# Assay: Rho-associated coiled-coil kinase (ROCK) assay, ADP-Glo system
# Format: biochemical
# Settings: 0.1 μg ROCK1, 1 μg S6K substrate, 100 μM ATP, 60 min
# Description: Rho-associated coiled-coil kinase (ROCK) assays were performed with the ADP-Glo system using 0.1 μg ROCK1 and 1 μg S6K substrate, and 100 μM ATP for 60 min prior to addition of ADP-GLO Reagent, and allowed to incubate for an additional 40 min prior to the addition of the Kinase Detection Reagent and imaging on a PHERASTAR system.
# Sequence of ROCK1 (Q13464 whole entry, species assumed): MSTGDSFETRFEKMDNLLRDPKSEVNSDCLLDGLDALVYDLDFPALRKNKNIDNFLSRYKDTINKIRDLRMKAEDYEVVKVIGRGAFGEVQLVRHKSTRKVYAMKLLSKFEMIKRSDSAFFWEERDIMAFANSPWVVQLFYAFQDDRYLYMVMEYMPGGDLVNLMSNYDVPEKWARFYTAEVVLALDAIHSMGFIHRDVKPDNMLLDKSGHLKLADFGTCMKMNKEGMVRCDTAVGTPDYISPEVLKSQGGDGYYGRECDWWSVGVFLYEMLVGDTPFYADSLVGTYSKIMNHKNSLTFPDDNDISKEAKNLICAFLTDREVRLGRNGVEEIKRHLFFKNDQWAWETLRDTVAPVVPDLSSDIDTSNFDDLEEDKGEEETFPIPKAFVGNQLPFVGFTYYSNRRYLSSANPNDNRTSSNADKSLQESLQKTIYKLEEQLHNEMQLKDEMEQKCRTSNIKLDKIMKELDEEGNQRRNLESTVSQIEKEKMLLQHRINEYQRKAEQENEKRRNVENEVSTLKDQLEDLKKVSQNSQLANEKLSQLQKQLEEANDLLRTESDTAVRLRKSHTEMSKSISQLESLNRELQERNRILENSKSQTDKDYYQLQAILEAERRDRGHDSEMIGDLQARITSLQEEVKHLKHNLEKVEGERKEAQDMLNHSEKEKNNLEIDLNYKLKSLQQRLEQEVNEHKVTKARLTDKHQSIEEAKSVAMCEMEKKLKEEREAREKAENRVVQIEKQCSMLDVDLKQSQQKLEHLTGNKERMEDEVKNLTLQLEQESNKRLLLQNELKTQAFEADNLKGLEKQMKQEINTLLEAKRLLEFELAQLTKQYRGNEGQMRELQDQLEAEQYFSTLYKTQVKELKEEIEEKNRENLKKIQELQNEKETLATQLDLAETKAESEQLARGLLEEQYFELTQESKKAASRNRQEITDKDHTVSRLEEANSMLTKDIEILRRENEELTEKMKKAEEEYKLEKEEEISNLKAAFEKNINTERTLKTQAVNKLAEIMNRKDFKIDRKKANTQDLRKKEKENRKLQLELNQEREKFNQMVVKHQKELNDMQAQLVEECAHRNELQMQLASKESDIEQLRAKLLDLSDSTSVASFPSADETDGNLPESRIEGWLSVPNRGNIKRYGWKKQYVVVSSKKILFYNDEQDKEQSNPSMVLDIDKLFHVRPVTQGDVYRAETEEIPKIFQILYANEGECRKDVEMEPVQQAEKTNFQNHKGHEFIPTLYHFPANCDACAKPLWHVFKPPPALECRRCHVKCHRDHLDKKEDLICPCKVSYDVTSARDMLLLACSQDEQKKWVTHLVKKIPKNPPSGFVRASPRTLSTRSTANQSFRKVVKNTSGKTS
row,IC50,Structure (SMILES)
1,17 nM,"CC1=C(C(=O)Nc2ccc3[nH]ncc3c2)C(c2ccc(F)c(C(=O)NCc3nccc4ccccc34)c2)NC(=O)N1 (stereo not shown) [Example E08, 4-(4-fluoro-3-((isoquinolin-1-ylmethyl)carbamoyl)phenyl)-N-(1H-indazol-5-yl)-6-methyl-2-oxo-1,2,3,4-tetrahydropyrimidine-5-carboxamide]"
2,61 nM,"CC1=C(C(=O)Nc2ccc3[nH]ncc3c2)C(c2ccc(F)c(C(=O)NCc3c(F)cccc3F)c2)NC(=O)N1 (stereo not shown) [Example E02, 4-(3-((2,6-difluorobenzyl)carbamoyl)-4-fluorophenyl)-N-(1H-indazol-5-yl)-6-methyl-2-oxo-1,2,3,4-tetrahydropyrimidine-5-carboxamide]"

# Target: T1, GRK2
# Assay: not given
# Settings: literature (Setyawan et al. 1999; Tesmer et al. 2010); cited from earlier work
row,Structure (SMILES),GRK2 inhibition potency
1,O=C(N[C@@H]1CNCCC[C@H]1OC(=O)c1cc(O)c(C(=O)c2c(O)cccc2C(=O)O)c(O)c1)c1ccc(O)cc1 [balanol],low nanomolar range
